Usually inhibition stands for the drop in the measured response relative to a control, in per cent.

What all share (assay type): functional
The target of experiment [1] is T1, Muscarinic acetylcholine receptor M2 (Homo sapiens) (UniProt P08172).
T1 sequence (whole entry): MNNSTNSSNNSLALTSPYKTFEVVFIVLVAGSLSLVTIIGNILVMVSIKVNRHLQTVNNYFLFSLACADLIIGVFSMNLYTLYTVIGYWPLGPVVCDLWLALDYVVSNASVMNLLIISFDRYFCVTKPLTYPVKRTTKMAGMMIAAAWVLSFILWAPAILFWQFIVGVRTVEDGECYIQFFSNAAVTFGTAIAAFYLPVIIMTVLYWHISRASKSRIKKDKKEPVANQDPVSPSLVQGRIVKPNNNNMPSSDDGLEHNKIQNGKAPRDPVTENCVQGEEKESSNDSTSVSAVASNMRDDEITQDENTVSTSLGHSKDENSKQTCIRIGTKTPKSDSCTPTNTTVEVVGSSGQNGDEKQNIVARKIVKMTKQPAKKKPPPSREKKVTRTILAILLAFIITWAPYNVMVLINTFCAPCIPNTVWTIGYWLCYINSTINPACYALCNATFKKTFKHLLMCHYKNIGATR
The experiment can be described thus: Agonist activity at recombinant human muscarinic M2 receptor at 10 uM by GTPgamma[35S] binding-based assay relative to agonist. A general note: GTPγS resists hydrolysis and so accumulates on activated G proteins.

In experiment [2] the target is Beta-2 adrenergic receptor (Homo sapiens) (UniProt P07550). Kind of experiment: Antagonist activity at recombinant human beta-2 adrenergic receptor assessed as inhibition of agonist-induced cAMP induction at 10 uM by HTRF assay. On the technique in general: Time-resolved FRET reads energy transfer from a long-lived donor to a nearby acceptor.
The target of experiment [3] is T1, Muscarinic acetylcholine receptor M2 (Homo sapiens). Kind of experiment: Antagonist activity at human muscarinic M2 receptor assessed as inhibition of agonist-induced effect at 10 uM by GTPgamma[35S] binding-based assay.
For experiment [4], the target named is 5-hydroxytryptamine receptor 4 (Homo sapiens) (UniProt Q13639). The experiment can be described thus: Antagonist activity at recombinant human 5-HT4E assessed as inhibition of agonist-induced cAMP levels at 10 uM by HTRF assay. (In general: Cyclic AMP is a second messenger, typically raised through Gs and lowered through Gi signalling.)
The target in experiment [5] is 5-hydroxytryptamine receptor 2B (Homo sapiens) (UniProt P41595). The experiment can be described thus: Agonist activity at recombinant human 5-HT2B at 10 uM by aequorin reporter based assay relative to agonist.
For experiment [6], the target named is T2, Vasoactive intestinal polypeptide receptor 1 (Homo sapiens) (UniProt P32241).
T2 sequence (whole entry): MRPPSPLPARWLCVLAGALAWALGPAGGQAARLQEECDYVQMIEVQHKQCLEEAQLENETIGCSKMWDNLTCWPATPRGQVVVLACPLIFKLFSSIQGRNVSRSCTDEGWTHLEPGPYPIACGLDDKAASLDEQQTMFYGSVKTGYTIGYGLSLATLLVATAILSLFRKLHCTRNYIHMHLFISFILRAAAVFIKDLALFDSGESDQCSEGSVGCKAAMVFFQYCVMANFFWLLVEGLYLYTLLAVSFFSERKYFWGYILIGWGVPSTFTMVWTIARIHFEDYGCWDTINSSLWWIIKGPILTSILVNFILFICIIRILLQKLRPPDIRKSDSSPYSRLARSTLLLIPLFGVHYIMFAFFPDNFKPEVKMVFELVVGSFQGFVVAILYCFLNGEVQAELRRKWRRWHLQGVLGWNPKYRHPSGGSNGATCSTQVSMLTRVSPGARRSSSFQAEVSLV
The experiment can be described thus: Agonist activity at recombinant human VPAC1 receptor at 10 uM by aequorin reporter based assay relative to agonist.

The target in experiment [7] is Somatostatin receptor type 4 (Homo sapiens) (UniProt P31391). Kind of experiment: Agonist activity at recombinant human somatostatin receptor 4 at 10 uM by GTPgamma[35S] binding-based assay relative to agonist.
The target of experiment [8] is T3, Muscarinic acetylcholine receptor M1 (Homo sapiens) (UniProt P11229).
T3 sequence (whole entry): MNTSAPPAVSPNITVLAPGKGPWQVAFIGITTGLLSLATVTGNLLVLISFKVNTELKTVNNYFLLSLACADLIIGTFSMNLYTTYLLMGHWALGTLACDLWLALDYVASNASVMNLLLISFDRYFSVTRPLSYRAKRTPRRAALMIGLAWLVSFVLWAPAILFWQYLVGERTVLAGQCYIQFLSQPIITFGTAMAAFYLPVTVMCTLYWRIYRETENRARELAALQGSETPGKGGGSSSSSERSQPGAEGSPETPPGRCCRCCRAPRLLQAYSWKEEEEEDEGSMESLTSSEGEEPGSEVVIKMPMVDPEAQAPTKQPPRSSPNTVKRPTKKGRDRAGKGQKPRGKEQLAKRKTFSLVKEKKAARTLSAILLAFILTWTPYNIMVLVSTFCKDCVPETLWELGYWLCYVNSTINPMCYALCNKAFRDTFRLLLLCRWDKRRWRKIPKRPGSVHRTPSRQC
Kind of experiment: Agonist activity at recombinant human muscarinic M1 receptor at 10 uM by aequorin reporter based assay relative to agonist.

The target of experiment [9] is D(1A) dopamine receptor (Homo sapiens) (UniProt P21728). The experiment can be described thus: Agonist activity at recombinant human dopamine D1 receptor assessed as induction of cAMP levels at 10 uM by HTRF assay relative to agonist.
In experiment [10] the target is 5-hydroxytryptamine receptor 4 (Homo sapiens) (UniProt Q13639). Kind of experiment: Agonist activity at recombinant human 5-HT4E assessed as induction of cAMP levels at 10 uM by HTRF assay relative to agonist.
In experiment [11] the target is T4, Muscarinic acetylcholine receptor M4 (Homo sapiens) (UniProt P08173).
T4 sequence (whole entry): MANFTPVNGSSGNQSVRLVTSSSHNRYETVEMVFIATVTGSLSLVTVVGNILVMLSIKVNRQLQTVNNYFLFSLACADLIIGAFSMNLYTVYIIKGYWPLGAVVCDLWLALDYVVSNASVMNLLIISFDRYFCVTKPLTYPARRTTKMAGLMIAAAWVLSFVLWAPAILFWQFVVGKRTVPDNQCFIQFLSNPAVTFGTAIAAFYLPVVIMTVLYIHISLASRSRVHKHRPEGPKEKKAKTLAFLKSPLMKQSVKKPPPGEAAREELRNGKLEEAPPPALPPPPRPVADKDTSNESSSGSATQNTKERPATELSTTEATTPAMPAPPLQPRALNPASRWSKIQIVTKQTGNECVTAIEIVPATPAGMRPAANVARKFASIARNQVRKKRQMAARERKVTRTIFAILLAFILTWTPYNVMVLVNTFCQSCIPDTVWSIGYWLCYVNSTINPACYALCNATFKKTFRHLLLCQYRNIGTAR
The experiment can be described thus: Antagonist activity at human muscarinic M4 receptor assessed as inhibition of agonist-induced effect at 10 uM by GTPgamma[35S] binding-based assay.

Experiment [12] concerns the target Beta-1 adrenergic receptor (Homo sapiens) (UniProt P08588). Kind of experiment: Agonist activity at recombinant human beta-1 adrenergic receptor assessed as induction of cAMP levels at 10 uM by HTRF assay relative to agonist.
Experiment [13] concerns the target 5-hydroxytryptamine receptor 6 (Homo sapiens) (UniProt P50406). The experiment can be described thus: Agonist activity at recombinant human 5-HT6R assessed as induction of cAMP levels at 10 uM by HTRF assay relative to agonist.
In experiment [14] the target is Kappa-type opioid receptor (Homo sapiens) (UniProt P41145). The experiment can be described thus: Agonist activity at recombinant human kappa-type opioid receptor at 10 uM by GTPgamma[35S] binding-based assay relative to agonist.
Sequence of Kappa-type opioid receptor (Homo sapiens) (P41145 whole entry): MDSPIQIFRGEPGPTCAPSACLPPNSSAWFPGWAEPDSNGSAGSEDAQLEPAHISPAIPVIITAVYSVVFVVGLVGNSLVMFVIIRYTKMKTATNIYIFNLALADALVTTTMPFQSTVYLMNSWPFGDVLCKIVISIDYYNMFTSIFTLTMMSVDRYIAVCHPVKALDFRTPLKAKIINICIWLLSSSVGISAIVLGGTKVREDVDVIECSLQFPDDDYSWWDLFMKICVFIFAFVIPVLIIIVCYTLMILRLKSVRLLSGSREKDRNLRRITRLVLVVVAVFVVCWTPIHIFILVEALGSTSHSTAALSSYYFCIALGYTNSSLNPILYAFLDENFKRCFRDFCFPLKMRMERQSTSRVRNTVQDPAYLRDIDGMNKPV

Sequence of D(1A) dopamine receptor (Homo sapiens) (P21728 whole entry): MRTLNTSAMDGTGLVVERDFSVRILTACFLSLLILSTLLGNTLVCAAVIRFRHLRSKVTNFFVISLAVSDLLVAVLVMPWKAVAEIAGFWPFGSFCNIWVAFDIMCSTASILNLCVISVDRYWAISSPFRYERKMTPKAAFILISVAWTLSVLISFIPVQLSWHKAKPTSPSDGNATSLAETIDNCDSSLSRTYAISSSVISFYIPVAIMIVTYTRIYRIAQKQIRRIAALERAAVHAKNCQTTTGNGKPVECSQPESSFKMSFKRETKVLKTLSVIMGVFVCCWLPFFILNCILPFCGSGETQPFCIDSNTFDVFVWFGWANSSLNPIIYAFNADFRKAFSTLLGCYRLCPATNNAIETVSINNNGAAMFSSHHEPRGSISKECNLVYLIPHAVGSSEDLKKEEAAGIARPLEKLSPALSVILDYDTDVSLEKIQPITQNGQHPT
Sequence of Beta-2 adrenergic receptor (Homo sapiens) (P07550 whole entry, looked up): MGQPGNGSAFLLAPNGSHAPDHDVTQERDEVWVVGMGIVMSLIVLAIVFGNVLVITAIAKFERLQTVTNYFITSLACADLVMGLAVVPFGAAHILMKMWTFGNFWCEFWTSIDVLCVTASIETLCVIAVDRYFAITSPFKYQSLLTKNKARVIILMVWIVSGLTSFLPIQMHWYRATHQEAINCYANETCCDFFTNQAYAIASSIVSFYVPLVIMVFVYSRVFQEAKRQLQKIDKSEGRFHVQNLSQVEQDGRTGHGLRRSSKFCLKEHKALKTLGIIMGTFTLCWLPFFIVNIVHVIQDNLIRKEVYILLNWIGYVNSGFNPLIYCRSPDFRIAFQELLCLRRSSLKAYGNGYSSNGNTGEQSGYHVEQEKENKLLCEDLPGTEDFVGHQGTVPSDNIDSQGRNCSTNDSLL
Sequence of 5-hydroxytryptamine receptor 2B (Homo sapiens) (P41595 whole entry): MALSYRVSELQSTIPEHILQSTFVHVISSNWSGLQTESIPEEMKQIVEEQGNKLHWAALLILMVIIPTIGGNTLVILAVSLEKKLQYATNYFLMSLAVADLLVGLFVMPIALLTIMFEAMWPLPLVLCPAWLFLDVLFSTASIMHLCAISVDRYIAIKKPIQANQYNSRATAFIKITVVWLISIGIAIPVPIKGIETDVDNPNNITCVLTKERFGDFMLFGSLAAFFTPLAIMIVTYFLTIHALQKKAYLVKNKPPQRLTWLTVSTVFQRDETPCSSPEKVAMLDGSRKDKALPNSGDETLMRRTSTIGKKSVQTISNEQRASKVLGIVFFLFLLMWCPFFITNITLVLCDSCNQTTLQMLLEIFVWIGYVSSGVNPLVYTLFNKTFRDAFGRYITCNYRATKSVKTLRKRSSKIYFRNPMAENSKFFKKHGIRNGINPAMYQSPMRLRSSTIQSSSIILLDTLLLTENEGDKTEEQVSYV
Sequence of 5-hydroxytryptamine receptor 6 (Homo sapiens) (P50406 whole entry): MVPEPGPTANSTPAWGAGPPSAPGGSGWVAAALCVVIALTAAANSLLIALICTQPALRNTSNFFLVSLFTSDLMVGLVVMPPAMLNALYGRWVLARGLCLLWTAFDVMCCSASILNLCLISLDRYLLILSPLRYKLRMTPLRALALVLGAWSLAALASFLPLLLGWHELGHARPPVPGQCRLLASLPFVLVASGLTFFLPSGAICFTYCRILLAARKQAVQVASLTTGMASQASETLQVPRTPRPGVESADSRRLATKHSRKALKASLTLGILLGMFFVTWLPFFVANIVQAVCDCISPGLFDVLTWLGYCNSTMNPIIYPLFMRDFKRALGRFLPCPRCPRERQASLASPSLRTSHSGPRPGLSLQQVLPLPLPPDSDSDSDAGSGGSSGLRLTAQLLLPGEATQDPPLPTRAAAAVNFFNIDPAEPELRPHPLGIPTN
Sequence of 5-hydroxytryptamine receptor 4 (Homo sapiens) (Q13639 whole entry): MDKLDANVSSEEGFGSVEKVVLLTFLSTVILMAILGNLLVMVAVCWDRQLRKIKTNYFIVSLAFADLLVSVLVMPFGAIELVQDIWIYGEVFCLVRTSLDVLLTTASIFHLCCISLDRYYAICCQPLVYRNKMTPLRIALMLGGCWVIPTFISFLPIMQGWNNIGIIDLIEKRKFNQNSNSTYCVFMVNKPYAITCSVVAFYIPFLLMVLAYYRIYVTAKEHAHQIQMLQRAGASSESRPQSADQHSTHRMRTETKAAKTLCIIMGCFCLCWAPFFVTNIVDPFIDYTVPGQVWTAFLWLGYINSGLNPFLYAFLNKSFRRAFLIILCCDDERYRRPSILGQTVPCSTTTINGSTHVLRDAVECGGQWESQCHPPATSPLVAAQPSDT
Sequence of Beta-1 adrenergic receptor (Homo sapiens) (P08588 whole entry, looked up): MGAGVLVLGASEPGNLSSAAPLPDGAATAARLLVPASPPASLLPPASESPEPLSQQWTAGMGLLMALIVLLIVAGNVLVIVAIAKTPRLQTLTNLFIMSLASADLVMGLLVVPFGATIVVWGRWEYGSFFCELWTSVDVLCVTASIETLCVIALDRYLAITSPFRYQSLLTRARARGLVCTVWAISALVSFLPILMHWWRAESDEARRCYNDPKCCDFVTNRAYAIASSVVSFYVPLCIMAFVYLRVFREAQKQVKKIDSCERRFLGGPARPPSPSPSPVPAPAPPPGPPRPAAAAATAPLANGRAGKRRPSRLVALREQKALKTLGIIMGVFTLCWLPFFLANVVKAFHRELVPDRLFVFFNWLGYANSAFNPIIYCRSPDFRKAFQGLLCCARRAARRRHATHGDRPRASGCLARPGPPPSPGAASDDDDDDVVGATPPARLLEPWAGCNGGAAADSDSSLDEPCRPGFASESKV
Sequence of Somatostatin receptor type 4 (Homo sapiens) (P31391 whole entry): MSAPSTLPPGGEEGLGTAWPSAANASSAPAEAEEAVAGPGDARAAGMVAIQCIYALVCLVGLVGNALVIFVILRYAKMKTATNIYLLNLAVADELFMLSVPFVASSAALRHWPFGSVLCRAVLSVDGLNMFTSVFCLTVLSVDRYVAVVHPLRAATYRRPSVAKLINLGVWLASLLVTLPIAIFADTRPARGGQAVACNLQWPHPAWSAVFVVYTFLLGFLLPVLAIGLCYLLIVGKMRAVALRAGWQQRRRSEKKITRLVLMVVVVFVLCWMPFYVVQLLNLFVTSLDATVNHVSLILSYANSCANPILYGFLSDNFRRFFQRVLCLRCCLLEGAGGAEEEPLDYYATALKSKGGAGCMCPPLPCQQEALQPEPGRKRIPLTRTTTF

Consider `CN(CCCNC(=O)c1cccc(Br)c1)Cc1ccccc1`, for which the Activity in experiment [1] was -11%; in experiment [5], -2%; in experiment [6], -1%; in [7], -2%; in experiment [8] it was 0%; in [9], -5%. In addition, the Activity in experiment [10] is -1%; in experiment [12], 10%; in experiment [13], 32%; in [14] it was 6%. The inhibition in experiment [2] was 0%; in [3], 30%; in [4], -2%; in experiment [11], 33%.
With `CN(CCCNC(=O)c1ccc(C(F)(F)F)cc1)Cc1ccccc1`, the Activity in [1] was -9%; in experiment [5] it was -2%; in experiment [6], 0%; in [7] it was -5%; in experiment [8], -1%; in experiment [9], -4%. The Activity in experiment [10] was found to be 8%; in [12], 2%; in experiment [13], 28%; in experiment [14] it was 1%. The inhibition is 4% in experiment [2], 20% in [3], -9% in [4] and 23% in [11].
Turning to `CCCc1ccc(C(=O)NCCCN(C)Cc2ccccc2)cc1`, the Activity in experiment [1] is -9%; in experiment [5], -3%; in [6], -1%; in [7] it was -1%; in [8] it was 0%; in experiment [9], -2%. Besides, the Activity in experiment [10] is -6%; in experiment [12] it was 6%; in experiment [13] it was 35%; in experiment [14] it was -2%. In addition, the inhibition was determined as 8% in experiment [2], 36% in experiment [3], 0% in experiment [4] and 33% in experiment [11].
`CN(CCNC(=O)c1ccc([N+](=O)[O-])cc1)Cc1ccccc1`: the Activity in [1] is -1%; in [5], -1%; in experiment [6] it was 0%; in experiment [7] it was -1%; in [8], 0%; in experiment [9], 14%. Also, the Activity in [10] was -5%; in [12], -3%; in experiment [13] it was -4%; in experiment [14] it was 8%. In addition, the inhibition in [2] was found to be 3%; in experiment [3], 29%; in [4] it was 2%; in experiment [11], 26%.
As for `CN(CCNC(=O)c1ccc(C#N)cc1)Cc1ccccc1`, the Activity in [1] was -3%; in experiment [5], -4%; in experiment [6] it was -1%; in experiment [7], -1%; in experiment [8], 0%; in experiment [9], 9%. In addition, the Activity is -7% in experiment [10], -5% in [12], -9% in [13] and 5% in experiment [14]. In addition, the inhibition in experiment [2] is 2%; in experiment [3] it was 26%; in [4] it was -2%; in [11], 25%.
In the case of `CN(CCCNC(=O)c1ccc(Br)cc1)Cc1ccccc1`, the Activity is -3% in [1]; 2% in [5]; 0% in experiment [6]; -4% in experiment [7]; 0% in [8]; -7% in experiment [9]. Further, the Activity is -7% in experiment [10], 2% in experiment [12], 4% in experiment [13] and 3% in experiment [14]. Moreover, the inhibition in experiment [2] was -1%; in experiment [3] it was 28%; in [4], -5%; in [11], 20%.
As for `CN(CCNC(=O)c1ccc(Cl)cc1)Cc1ccccc1`, the Activity in experiment [1] was -5%; in experiment [5], 0%; in experiment [6] it was -1%; in experiment [7], 1%; in experiment [8], 0%; in experiment [9] it was -4%. Further, the Activity was -5% in experiment [10], 7% in experiment [12], 27% in [13] and 5% in experiment [14]. Also, the inhibition is 1% in [2], 28% in [3], -3% in [4] and 13% in experiment [11].
For `COc1cccc(C(=O)NCCCN(C)Cc2ccccc2)c1`, the Activity in [1] was -1%; in experiment [5] it was -2%; in experiment [6] it was 0%; in experiment [7], -4%; in [8] it was 0%; in experiment [9] it was 8%. Also, the Activity is -12% in experiment [10], -10% in [12], -2% in experiment [13] and 7% in experiment [14]. For the same compound, the inhibition is 2% in experiment [2], 26% in experiment [3], 12% in [4] and 21% in experiment [11].
Regarding `CN(CCCNC(=O)c1ccc(Cl)cc1)CCc1ccccc1`, the Activity in experiment [1] was -10%; in experiment [5], 38%; in [6] it was 1%; in experiment [7], 15%; in [8], 0%; in experiment [9], -6%. Besides, the Activity in experiment [10] is -3%; in experiment [12], 18%; in experiment [13], 16%; in experiment [14], -1%. Moreover, the inhibition in [2] is 2%; in experiment [3] it was 54%; in experiment [4], 4%; in [11], 18%.

Source of the values: ChEMBL document CHEMBL4130363, “Synthesis and pharmacological evaluation of benzamide derivatives as potent and selective sigma-1 protein ligands” (Eur J Med Chem, 2017).
